Results taken from PubChem BioAssay AID330 (DTP/NCI, 2004).
Where “and” joins values, the source holds several entries; their conditions need not be identical. Identical values can stand only once. Toxic doses and inconclusive results are not listed. The calls were made as follows: active = survival T/C of 150% or more; inactive = T/C below 125% in these data.

Tested on: P388 leukemia ip, CD2F1 mice, survival T/C
Assay: NCI In Vivo Anticancer Drug Screen. Data for tumor model P388 Leukemia (intraperitoneal) in CD2F1 (CDF1) mice
Settings: endpoint: median survival time, higher = longer survival
Method in brief: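 Mice carrying the transplanted tumor received test compound or vehicle. Survival was recorded in each group, and the value is the treated-group measurement divided by that of the vehicle-treated control group.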

[1] = dose: 25.0 mg/kg/injection, schedule: Q01DX005 (ip), vehicle: saline
[2] = dose: 50.0 mg/kg/injection, schedule: Q01DX005 (ip), vehicle: Klucel (hydroxypropylcellulose) (HPC)
[3] = dose: 100.0 mg/kg/injection, schedule: Q01DX005 (ip), vehicle: Klucel (hydroxypropylcellulose) (HPC)
[4] = dose: 200.0 mg/kg/injection, schedule: Q01DX005 (ip), vehicle: Klucel (hydroxypropylcellulose) (HPC)
[5] = dose: 50.0 mg/kg/injection, schedule: Q01DX005 (ip), vehicle: saline with Tween-80
[6] = dose: 100.0 mg/kg/injection, schedule: Q01DX005 (ip), vehicle: saline with Tween-80
[7] = dose: 200.0 mg/kg/injection, schedule: Q01DX005 (ip), vehicle: saline with Tween-80

Measured: T/C

CC(=O)Nc1n[nH]c(C)n1
inactive: [1] 97 % of control | dose: 50.0 mg/kg/injection, schedule: Q01DX005 (ip), vehicle: saline 106 % of control | dose: 100.0 mg/kg/injection, schedule: Q01DX005 (ip), vehicle: saline 97 % of control

CCCCCCCCCCCC(O)CCCC(O)CC(O)CC(O)CC1CC=CC(=O)O1 (centres undefined)
inactive: dose: 12.5 mg/kg/injection, schedule: Q01DX009 (ip), vehicle: Klucel (hydroxypropylcellulose) (HPC) 106 % of control | dose: 25.0 mg/kg/injection, schedule: Q01DX009 (ip), vehicle: Klucel (hydroxypropylcellulose) (HPC) 103 % of control | dose: 50.0 mg/kg/injection, schedule: Q01DX009 (ip), vehicle: Klucel (hydroxypropylcellulose) (HPC) 112 % of control

O=C1C(Cl)=C(Cl)C(Cl)(Cl)C(Cl)=C1Cl
inactive: dose: 25.0 mg/kg/injection, schedule: Q01DX001 (ip), vehicle: Klucel (hydroxypropylcellulose) (HPC) 99 % of control | dose: 50.0 mg/kg/injection, schedule: Q01DX001 (ip), vehicle: Klucel (hydroxypropylcellulose) (HPC) 93 % of control | dose: 100.0 mg/kg/injection, schedule: Q01DX001 (ip), vehicle: Klucel (hydroxypropylcellulose) (HPC) 93 % of control

C/C(=N\NC(N)=Nc1ccc(Cl)cc1)c1ccc2c(c1)Cc1cc(/C(C)=N/NC(N)=Nc3ccc(Cl)cc3)ccc1-2
inactive: dose: 25.0 mg/kg/injection, schedule: Q04DX002 (ip), vehicle: saline with Tween-80 87 % of control | dose: 50.0 mg/kg/injection, schedule: Q04DX002 (ip), vehicle: saline with Tween-80 90 % of control | dose: 100.0 mg/kg/injection, schedule: Q04DX002 (ip), vehicle: saline with Tween-80 97 % of control | dose: 200.0 mg/kg/injection, schedule: Q04DX002 (ip), vehicle: saline with Tween-80 101 % of control | dose: 400.0 mg/kg/injection, schedule: Q04DX002 (ip), vehicle: saline with Tween-80 100 % of control

COc1ccc(N2C(=O)CC(c3cc(OC)c(OC)c(OC)c3)CC2=O)cc1
inactive: [2] 94 % of control | [3] 89 % of control | [4] 90 % of control

CN1C(c2ccncc2)=NCC12CCCCC2
inactive: dose: 6.25 mg/kg/injection, schedule: Q01DX005 (ip), vehicle: saline 97 % of control | dose: 12.5 mg/kg/injection, schedule: Q01DX005 (ip), vehicle: saline 100 % of control | dose: 12.5 mg/kg/injection, schedule: Q04DX002 (ip), vehicle: saline 106 % of control | [1] 95 % of control | dose: 25.0 mg/kg/injection, schedule: Q04DX002 (ip), vehicle: saline 106 % of control

O=C1CN(c2ccccc2)C(=O)CN1/N=C/c1ccco1
inactive: dose: 12.5 mg/kg/injection, schedule: Q01DX005 (ip), vehicle: saline with Tween-80 100 % of control | dose: 25.0 mg/kg/injection, schedule: Q01DX005 (ip), vehicle: saline with Tween-80 95 % of control | [5] 100 % of control and 94 % of control | [6] 98 % of control | [7] 103 % of control

Clc1cccc2nc(-c3ccccn3)n(CCc3ccccn3)c12
inactive: [2] 96 % of control | [3] 100 % of control | [4] 100 % of control

CC(=O)Nc1ccc(S(=O)(=O)Nc2cccc3[nH]c(=O)oc23)cc1
inactive: dose: 50.0 mg/kg/injection, schedule: Q04DX002 (ip), vehicle: Klucel (hydroxypropylcellulose) (HPC) 98 % of control | dose: 100.0 mg/kg/injection, schedule: Q04DX002 (ip), vehicle: Klucel (hydroxypropylcellulose) (HPC) 95 % of control | dose: 200.0 mg/kg/injection, schedule: Q04DX002 (ip), vehicle: Klucel (hydroxypropylcellulose) (HPC) 92 % of control

CC(C)(S)CN
inactive: dose: 100.0 mg/kg/injection, schedule: Q01DX001 (ip), vehicle: saline 104 % of control | dose: 200.0 mg/kg/injection, schedule: Q01DX001 (ip), vehicle: saline 108 % of control | dose: 400.0 mg/kg/injection, schedule: Q01DX001 (ip), vehicle: saline 103 % of control

CC1CC=CCC1C1OC(C)C(C)O1 (centres undefined)
inactive: [5] 110 % of control | [6] 106 % of control | [7] 109 % of control
